Reference: patent US6258790A, “Antisense modulation of integrin α4 expression” (Isis Pharmaceuticals, Inc., priority 1999, dated 2001)

Assays:
[1] = system: leukocyte trafficking into the central nervous system of EAE mice; assay: Reduction of leukocyte trafficking into the central nervous system of EAE mice (immunostaining of sections); type: in vivo, mouse (CSJLF1)
Method: The pieces were embedded in O.C.T. tissue freezing medium (Ted Pella Inc., Redding, Calif.) on dry ice and methylbutane. Four-micron frozen sections were cut and air dried overnight. The sections were fixed for three minutes in ice-cold acetone and then placed on a Dako Autostainer (Dako Corporation, Carpinteria, Calif.) and treated in the following steps: 5 minutes in 0.03% H2 O2, 5 minutes in 5% donkey serum diluted in PBS, 45 minutes in appropriately diluted primary antibody, 30 minutes in horseradish peroxidase-labeled donkey anti-rat secondary antibody (Jackson Laboratory, Bar Harbor, Me.). Sections were rinsed between treatments with PBS. All the antibodies used were rat anti-mouse from PharMingen (San Diego, Calif.), except BM-8, which was from Bachem Bioscience Inc. (King of Prussia, Pa.). The immunostaining was developed with DAB (Dako Corporation) and counterstained with hematoxylin.

[2] = system: murine integrin α4; assay: Antisense inhibition of murine integrin α4 protein expression in IC-21 macrophage cells (flow cytometry, CD49d-PE); type: cell-based, mouse; conditions: for % Control / % Inhib.: Table 16
Method: Murine IC-21 macrophage cells (American Type Culture Collection, Manassas, Va.) were used for further study. Additional oligonucleotides were designed to target murine integrin α4. These are shown in Table 10; all 2' MOE nucleotides are shown in bold and remaining positions are 2' deoxy. All 2'-MOE cytosines in these compounds are 5' methylcytosines. IC-21 cells were seeded at 5×10^4 cell/well plates two days before assay. […] Wells were triplicates.
Cells (triplicates) were seeded at 2.5×10^4 cells/well in 24-well plates the day before treatment. Oligonucleotide concentrations were 0.2, 1, 5, 25 and 50 nM in 3 ug/ml LIPOFECTIN. Cells were harvested with 2 mM EDTA for 4 minutes, then 1 ml of 2% BSA, 0.2% azide was added per contents of each well.
IC-21 cells were treated with 0.3, 1, 3, 10 and 30 nM oligonucleotide with 3 ug/ml LIPOFECTIN for 4 hours. Cells were incubated for 24 hours, harvested with trypsin, stained with 2 ug/ml CD49d-PE and rat IgG2B as in previous examples.
These compounds were tested for ability to inhibit integrin α4 protein expression.

[3] = system: Mouse collagen-induced arthritis (CIA); assay: Mouse collagen-induced arthritis (CIA) model for rheumatoid arthritis; type: in vivo, mouse (DBA/1LacJ)
From the text: A model for human rheumatoid arthritis has been developed wherein mice are immunized with bovine type II collagen. Anderson et al., J. Immunol. 1991 147, 1189-1193, citing Trentham et al., J. Exp. Med 1977, 146, 857. Swelling and inflammation of the joints follows in approximately 3 weeks, with joint distortion and ankylosis typical of rheumatoid arthritis. This model has been used to study the effects of the antisense oligonucleotide 17044, targeted to mouse integrin α4, on arthritis in mice.
DBA/1LacJ mice were obtained from Jackson Laboratory, Bar Harbor, Me. Female mice aged 6 to 8 weeks were used and assigned to groups, ten mice per group. On day 0 mice were immunized at the base of the tail with 100 ug of bovine type II collagen which was emulsified in Complete Freund's Adjuvant (CFA). On day 7, a second booster dose of collagen was administered by the same route. On day 14 the mice were injected subcutaneously with 100 ug of lipopolysaccharide (LPS). Weights were recorded weekly. Mice were inspected daily for the onset of CIA, which is characterized by erythema and edema. Upon the onset of the disease, paw widths and rear ankle widths of affected and unaffected joints were measured three times a week using a constant tension caliper. In addition, limbs were clinically evaluated and graded 0-4, where 0=normal; 1=one digit swollen; 2=inflammation present in more than one digit; 3=joint distortion with or without inflammation; and 4=ankylosis, detected by joint manipulation. The progression of all measurements was recorded to day 50. At the end of the observation period for each mouse, all paws were removed and examined histologically.
The oligonucleotide, the positive control drug (cyclophosphamide, 5 mg/kg), and the vehicle were administered daily to each mouse intraperitoneally (IP) starting on day -3 and continuing for the duration of the study. Each animal received 10 mg/kg as a bolus daily dose.
In a preliminary study, a single 10 mg/kg daily dose of […] was administered from the time of disease induction to the conclusion of the study 50 days later. Arthritis incidence was reduced from 70 to 30% in the ISIS 17044-treated group.

[4] = system: integrin α4; assay: Inhibition of integrin α4 protein expression in Jurkat T-lymphocyte cells; type: cell-based, human
Method: ISIS 107248 was tested at doses of 1, 3, 10, 20 and 30 μM for ability to inhibit integrin α4 expression in Jurkat T-lymphocyte cells according to the previous examples. Integrin α4 protein expression was reduced by approximately 65-72% at oligonucleotide doses of 3-30 μM at 24 hours after oligonucleotide treatment. At 48 hours after treatment, integrin α4 protein expression was reduced by 60% at 3 μM and by 90% at 10, 20 and 30 μM oligonucleotide concentration.

[5] = system: A375 melanoma cell adherence to HUVEC; assay: Adherence of A375 melanoma cells to HUVEC (flow cytometry); type: cell-based, human; conditions: 10 μM; compared to TNF treated control
Method: Human umbilical vein endothelial cells (HUVEC) (Clonetics, San Diego Calif.) were cultured in EGM-UV medium (Clonetics)and treated with TNFA for 20 hours to induce VCAM expression. A375 melanoma cells were electroporated with ISIS 107248 as described above. Using antibody to PECAM, a specific marker for endothelial cells, flow cytometry was used to quantitate the inhibition of adherence of A375 melanoma cells to HUVECs. Compared to control (TNF treated, no oligonucleotide), ISIS 107248 (10 μM) inhibited A375 melanoma cell adherence to HUVEC by approximately 85%. An antibody to integrin α4 inhibited adherence by approximately 72%. Melanoma cells represent a clinically relevant model because a statistically significant correlation has been shown between increased expression of VLA-4 expression(of which integrin α4 is one member) and time to progression and overall survival time of patients with melanoma. Schadendorf et al., J. Natl. Cancer Inst., 1995, 87, 366-371.

[6] = Table 23, mice with arthritis, 10 mg/kg

17044 (CCGCAGCCATGCGCTCTTGG; phosphorothioate, 2'-MOE/deoxy, further chemistry not given here) [compound 17044]
leukocyte trafficking into the spinal cords and brains ([1]; 1 mg/kg): reduce leukocyte trafficking into the spinal cords and brains | reduction of leukocyte influx into the central nervous system, 1.0 vs 0.1 mg/kg ([1]; EAE experiment 4): dose-dependent effect with 1.0 mg/kg of 17044 causing a greater reduction of leukocyte influx into the central nervous system than did 0.1 mg/kg 17044 | CD4+T cells in the central nervous system ([1]; one experiment, EAE mice): virtually eliminated | leukocyte trafficking as measured by expression of VLA-4, CD4, BM-8 and CD18 ([1]; preliminary experiments, 1 mg/kg): significantly reduced | reduction of integrin α4 expression ([2]; Example 14): reduce integrin α4 expression to below starting levels | % Control ([2]; 0.3 nM): 100% | % Inhib. ([2]; 0.3 nM): 0% | % Control ([2]; 1 nM): 81% | % Inhib. ([2]; 1 nM): 19% | % Control ([2]; 3 nM): 32% | % Inhib. ([2]; 3 nM): 68% | % Control ([2]; 10 nM): -9% | % Inhib. ([2]; 10 nM): > 100% | # Paws/Mouse (mean number of affected paws at termination) ([3]; Table 22, 10 mg/kg daily IP): 0.7 ± 0.4 | Mean Day of Onset ([3]; Table 22, 10 mg/kg daily IP): 20.3 ± 1.9 days | Peak Day of Inflamm. (day from onset to time of maximum swelling) ([3]; Table 22, 10 mg/kg daily IP): 1.6 ± 0.8 days | Severity (total clinical score/total number of mice in group) ([3]; Table 22, 10 mg/kg daily IP): 2.1 ± 1.1 | Mean # of Paws Involved [3, 6]: 2.3 ± 0.3 | Mean Clinical Score [3, 6]: 7.0 ± 1.0 | Arthritis incidence ([3]; preliminary study, single 10 mg/kg daily dose, reduced from 70): 30%

107248 (antisense CTGAGTCTGTTTTCCATTCT; chemistry not given here) [compound 107248]
reduction of integrin α4 protein expression ([4]; 3 μM, 48 hours): 60% | reduction of integrin α4 protein expression ([4]; 10 μM, 48 hours): 90% | reduction of integrin α4 protein expression ([4]; 20 μM, 48 hours): 90% | reduction of integrin α4 protein expression ([4]; 30 μM, 48 hours): 90% | reduction of integrin α4 protein expression ([4]; 3-30 μM, 24 hours): 65-72% | inhibition of A375 melanoma cell adherence to HUVEC [5]: approximately 85%
